Experimental data reported in patent US8524685B1, “Anti-angiogenic therapeutics efficacy enhanced by nanoformulation” (University of Puerto Rico, priority 2010, dated 2013).

Legend:
PERK = assay: Unfolded protein response, western blot of PERK; format: cell-based, bovine; settings: FIG. 5
Protocol: (§1) The capillary endothelial cells were from the laboratory stock of a non-transformed endothelial cell line from bovine adrenal medulla and maintained as previously described. Synchronized cultures (33) were treated with Tunicamycin nanoparticles (1 μg/ml) for 1 h in EMEM containing 2% fetal bovine serum (heat inactivated).
(§2) Performed as before with 7.5% gel concentration.
(§3) It has been observed recently that Tunicamycin inhibits angiogenesis in vitro and in vivo as well as during the breast tumor progression by ER stress-mediated induction of unfolded protein response. In addition, it has also been shown that Tunicamycin gold nanoparticles inhibit capillary endothelial cell cycle progression much more effectively than native Tunicamycin. It was also evaluated if Tunicamycin gold nanoparticles would also activate the pathway that induces the unfolded protein response. The results shown in FIG. 5 indicate that Tunicamycin gold nanoparticles affect both transcription and translation.

p53p^ser392 = assay: Western blot of p53 phosphorylated in serine392; format: cell-based, bovine; settings: FIG. 3
Protocol: as §1, §2
(§4) To evaluate the biochemical pathway the Tunicamycin nanoparticles are likely to interfere, their effect on the cell cycle progression has been analyzed. The cell cycle antigens have been analyzed focusing primarily on the D-type cycline and their partners because Tunicamycin causes cell cycle arrest in G1. […] Expression of cyclin D1 and its catalytic partner, i.e., CDK4 was analyzed by western blotting. […] There was a little difference with the CDK4 expression. It was higher in cells treated with 20 nm gold particles […], but they both were much reduced compared to the untreated control or cells treated with native Tunicamycin as shown in FIG. 2. p53 is a gate keeper for the cell cycle. Upon phosphorylation p53 migrates to the nucleus and activates gene transcription.

GRP-78/Bip = settings: shown earlier; cited from earlier work
breast tumor = settings: athymic nude mice; cited from earlier work
cyclin D1 = assay: Western blot of cyclin D1 expression in capillary endothelial cells; format: cell-based, bovine; settings: 1 μg/ml, FIG. 2
Protocol: as §1, §2, §4

IRE-1 = assay: Unfolded protein response, western blot of IRE-1; format: cell-based, bovine; settings: FIG. 5
Protocol: as §1, §2, §3

angiogenesis = settings: in vitro/in vivo; cited from earlier work
phosphoPERK = assay: Unfolded protein response, western blot of phosphoPERK; format: cell-based, bovine; settings: FIG. 5
Protocol: as §1, §2, §3

[1] = tested on: capillary endothelial cells; assay: MTT assay, capillary endothelial cell viability; format: cell-based, bovine; settings: 1 μg/ml, 3 h at 37° C., FIG. 1
Protocol: as §1
Synchronized capillary endothelial cells were incubated with Tunicamycin (1 μg/ml) alone or with 1 μg/ml of Tunicamycin nanoparticles for 3 h at 37° C. in a CO2 incubator (5% CO2 and 95% air) in 96-well microtiter plates. At the end the plates were processed for the MTT Assay. The results shown in FIG. 1 indicate that the cell viability was reduced to almost 50% (p<0.001) when treated with Tunicamycin conjugated to 20 nm or 50 nm gold particles.

CDK4 = assay: Western blot of CDK4 expression in capillary endothelial cells; format: cell-based, bovine; settings: 1 μg/ml, FIG. 2, for the conjugates also compared to native Tunicamycin
Protocol: as §1, §2, §4

[2] = tested on: capillary endothelial cells; settings: in vitro, capillary endothelial cells plated on fibronectin-coated dishes; cited from earlier work

Tunicamycin
PERK activation (PERK): either had no effect or the effect is drastically reduced
expression of p53 phosphorylated in serine392 (p53p^ser392) (p53p^ser392): no effect
time of treatment at which ER stress is induced (GRP-78/Bip): 3 h
breast tumor growth (breast tumor): reduce the breast tumor growth
expression of cyclin D1 compared to the untreated control (cyclin D1): enhanced
IRE-1 (transcriptional attenuator) activation (IRE-1): either had no effect or the effect is drastically reduced
angiogenesis (angiogenesis): inhibit angiogenesis
phosphoPERK (translational attenuator) activation (phosphoPERK): either had no effect or the effect is drastically reduced
effect on capillary endothelial cell viability compared to the control [1]: does not show any effect
expression of CDK4 compared to the untreated control (CDK4): enhanced

OC[C@H]1NC[C@@H](O)[C@@H](O)[C@@H]1O [deoxymannojirimycin]
formation of capillary tubes [2]: inhibited the formation of capillary tubes

O[C@H]1[C@H]2[C@H](O)CCCN2C[C@H]1O [swainsonine]
formation of capillary tubes [2]: did not inhibit tube formation
